From patent publication US20130158112A1, “COMPOSITIONS AND METHODS FOR INHIBITING BETA AMYLOID SECRETION” (priority 2011, published 2013)
Several values for one entry are separate records, joined by “and”; a condition that tells them apart may be missing. Equal entries are not always repeated. Where two headings read alike, the source gives them in different places.

How the values were obtained:
Aβ secretion = experiment: Secreted total Aβ ELISA in conditioned media of H4βAPP695 wt cells; type: cell-based, human; details: for inhibition at 10 µM / inhibition at 30 µM: Homo sapiens, 24 h, H4βAPP695 wt cells; for inhibition at 10 µM: read-out: Total Aβ (% decrease) 10 μM Mean; for inhibition at 30 µM: read-out: Total Aβ (% decrease) 30 μM Mean; for Aβ secretion inhibiting activity (structure activity summary): in words
Procedure, shortened: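 H4 […] cells stably expressing wild-type βAPP695 (CMV promoter), serum-starved 24 h, then exposed to drug in DMSO or vehicle for 24 h before Aβ in conditioned media was measured. Primary cortical neurons came from E18 APPswe/PSEN1dE9 mice on C57BL/6 background.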

H4βAPP695 wt cells [1] = details: human, 24 h
Procedure: (§3) Cells were washed with cold phosphate buffered saline (PBS) and lysed on ice by vigorous mixing over 15 min with RIPA buffer containing 50 mM Tris-HCl (pH 8.0), 150 mM sodium chloride, 1% NP-40, 0.5% sodium deoxycholate, and 0.1% SDS, supplemented with 10% protease inhibitor cocktail and 2 mM PMSF. After centrifugation at 14000 g for 30 min to remove nuclei and other debris at 4° C., the protein content of the supernatants was measured using the BCA assay kit (Pierce).
(§4) The initial screen was performed in 96-well plates with drugs distributed by the hanging drop method yielding estimated drug levels of 10-25 μM. Total Aβ levels in the 24 h conditioned media were measured by a sandwich ELISA assay, and cytotoxicity was assessed by methylene blue staining of the cells in the wells, as previously described.

[2] = Body weight after one-week oral feeding; type: in vivo, mouse; details: 0.31-2.5 g/kg in chow diet
Procedure: (§1) In this Example, mutant APP/PS1 transgenic mice were obtained from Dr. Mathias Jucker (R Radde et al. 2006, EMBO Reports 7:940-946). […] The drug was milled into the chow diet (Harlan Teklad #2018) at 4 doses: 0.31, 0.62, 1.25, and 2.5 g/kg. Assuming each mouse eats 4 g of per day, the lowest dose should yield 1.24 mg intake per day, or about 75 mg/kg body weight. Six-week old female transgenic mice were fed ad librium with the chow diet or the diet supplemented with the four drug doses. […] At the end of the study, brains were isolated, and half brains were homogenized in a buffer containing guanidine hydrochloride and SDS. This extract was diluted and used in assays for total protein and an ELISA for Abeta levels. […] There was not a dose response in this study, as the effect appeared to plateau out even at the lowest dose of the drug, 0.31 g/kg diet. This oral diet study supported a prior finding using 3 oral gavages of this drug at an estimated dose of 200 mg/kg body weight delivered in Cremaphor over a 1.5 day period in which we observed a 30% decrease in cerebral Aβ levels (data not shown).

H4βAPP695 wt cells [3] = experiment: Cytotoxicity by total cell protein content (BCA) of H4βAPP695 wt cells; details: cytotoxicity
Procedure: as §3, §4

[4] = tested on: THLE-3 human hepatoma cells; experiment: Drug activity persistence after incubation with THLE-3 hepatoma cells; type: in vitro ADME; details: for inhibition at 10 µM: Homo sapiens, THLE3, 24 h
Procedure: (§2) H4βAPP695 wt cells, a human […] cell line stably transfected with a wtβAPP695 expression vector construct under the control of a CMV promoter (kindly provided by Dr. Chris Eckman from Mayo Clinic, Florida) were cultured as previously described. Twenty-four hours before drug treatment, the media was replaced with serum-free media. Cells were then incubated with drugs (dissolved in DMSO) or vehicle for 24 h for collection of conditioned media and cell lysates. For the PKC inhibitors experiment, three inhibitors were treated 30 min prior to drug challenge. Primary cortical neurons were prepared from embryonic day 18 APP and presenilin 1 (APPswe, PSEN1dE9) transgenic mice on the C57BL/6 genetic background (Jackson Laboratories, strain no. 5864) as previously described. THLE-3 human hepatoma cells (from ATCC) were plated in 24-well plates that were precoated with 10 μg/mL bovine serum albumin, 10 μg/mL fibronectin, and 30 μg/mL bovine type I collagen. The cells were grown in BEGM media (Clonetics) until confluent and treated with drugs at 20 μM for 24 h. This conditioned media was harvested, diluted 1:1 in serum-free medium, and incubated with H4βAPP695 wt cells for 24 h prior to analysis of secreted Aβ, which was compared to the effect of 10 μM drug treatments without prior incubation with the THLE-3 cells. Caco-2 cells (ATCC) were plated in 12-well plates with Transwell inserts (Costar) at 70000 cells per well and grown for 21 days. The media volume of the apical and basal chambers was 0.5 and 1.5 mL, respectively. Transepithelial resistance was measured in each well and found to be >160 Ω/cm^2. Drugs at 40 μM and 20 μg/mL of lucifer yellow were added in serum-free medium to the apical chamber. Four hours later, the basal chamber media was harvested and used to measure lucifer yellow fluorescence to confirm monolayer integrity as well as for treatment of H4βAPP695 wt cells for 24 h prior to analysis of secreted Aβ, which was compared to the effect of direct addition of 10 μM of the corresponding drug.
To screen for resistance to metabolism, 1 and eight noncytotoxic analogues with >50% Aβ reducing activity (compounds 27, 29, 48, 52, 53, 65, 73, and 76) were incubated at 20 μM for 24 h with or without THLE-3 human hepatoma cells.

Caco-2 cells = experiment: Epithelial transcellular transport of drug activity through Caco-2 monolayers; type: in vitro ADME
Procedure: as §2
Monolayer integrity was confirmed by high levels of transcellular electrical resistance (>160 ohms/cm^2) and by transcellular impermeability to the fluorescent dye lucifer yellow. […] The concentration of each compound added to the upper chamber would lead to 10 μM in the lower chamber if equilibration was complete, and thus the activity of the lower chamber media was compared to the activity of 10 μM drug added directly to the H4βAPP695 wt cells. […] Compound 1 crossed the monolayer and the bottom chamber media led to a 27% reduction in Aβ production, yielding 38% of the theoretical activity. The compound with the most activity in the lower chamber was compound 48, which decreased Aβ production by 50%, with 71% of its theoretical activity. […] On the basis of the combined activity data from these last two studies, compound 48 was selected as the lead drug for in vivo study.

cerebral Aβ levels [5] = experiment: In vivo iv administration and cerebral Aβ assay; set-up: species or system mouse; details: APP/PS1 transgenic mice, iv 100 to 125 mg/kg single dose, 6 h
Procedure: Transgenic mice expressing humanized mutant versions of APP and presenilin 1 (APPswe, PSEN1dE9) on the C57BL/6 genetic background were obtained from Jackson Laboratories (strain no. 5864) and bred to wild type C57BL/6 mice in order to obtain ˜50% transgenic that were used in these studies. These mice develop Aβ senile plaques by 6 months of age. To prepare the drug stock, 17.5 mg of compound 48 was dissolved in 40 μL of DMSO, which was mixed sequentially with 110 μL of Cremophor EL (Sigma) and 900 μL of sterile saline. Two month old female transgenic mice weighing 20-25 g were anesthetized with ketamine/xylazine and injected iv via the retroorbital plexus with vehicle control or with 2.5 mg of compound 48 in 150 μL of the drug stock (yielding a dose of ˜100 to 125 mg/kg). Six h later, the mice were euthanized by CO2 inhalation, the brains were removed, and the cerebellum discarded. One brain hemisphere was homogenized for 45 s on ice using a tissue grinder in 1 mL of solution containing 5 M guanadine HCl, 50 mM Tris (final pH adjusted to 8.3), and 5% protease inhibitor cocktail. Any debris was removed by centrifugation for 10 min at 2000 g. The supernatant was diluted 1:10 in 20% casein blocker in PBS with 5% protease inhibitor cocktail. […] The protein concentration of the brain homogenate was determined with the BCA assay, and the total Aβ levels were normalized to brain protein levels. […]

cerebral Aβ levels [6] = experiment: Oral treatment and cerebral Aβ ELISA in mutant APP/PS1 transgenic mice; type: in vivo, mouse; details: 3 oral gavages, estimated 200 mg/kg in Cremaphor over 1.5 day
Procedure: as §1

Structure (SMILES) | inhibition at 10 µM (Aβ secretion) [%] | inhibition at 30 µM (Aβ secretion) [%] | Aβ secretion inhibiting activity (structure activity summary) (Aβ secretion) | Cell protein (% decrease) 10 μM Mean (H4βAPP695 wt cells [1]) [%] | Cell protein (% decrease) 30 μM Mean (H4βAPP695 wt cells [1]) [%] | melting point [°C] | effect on body weights [2] | Cell protein (% decrease) 10 μM Mean (H4βAPP695 wt cells [3]; 10 μM) [%] | Cell protein (% decrease) 30 μM Mean (H4βAPP695 wt cells [3]; 30 μM) [%] | inhibition at 10 µM ([4]; 10 μM on H4 cells, without preincubation with hepatoma cells, read-out: hepatoma incubation No total Aβ (% decrease)) [%] | inhibition at 10 µM ([4]; 20 μM preincubated 24 h with THLE-3 hepatoma cells, diluted to 10 μM on H4 cells, read-out: hepatoma incubation Yes total Aβ (% decrease)) [%] | % remaining Activity ([4]; after 24 h incubation with hepatoma cells) [%] | % theoretical activity (Caco-2 cells; % of activity passing through Caco-2 monolayer) | inhibition at 10 µM (Caco-2 cells; Homo sapiens, Caco-2, 10 μM drug alone added directly to H4βAPP695 wt cells, read-out: transcellular transport No total Aβ (% decrease)) [%] | inhibition at up to 10 µM (Caco-2 cells; Homo sapiens, Caco-2, 4 h, lower chamber media after 4 h on Caco-2 monolayer, 10 μM if in equilibrium, read-out: transcellular transport Yes total Aβ (% decrease)) [%] | reduction in cerebral Aβ levels (cerebral Aβ levels [5]) [%] | decrease in cerebral Aβ levels, oral gavage (cerebral Aβ levels [6]) [%]
COc1cccc(CSCCNC(=O)c2c([N+](=O)[O-])cccc2[N+](=O)[O-])c1 [Compound 37, N-[2-(3-Methoxy-benzylsulfanyl)-ethyl]-2,6-dinitro-benzamide] | -14.1 | -2.8 | not well tolerated | 3.7 | −3.8 | 69 to 71 |  |  |  |  |  |  |  |  |  |  | 
Cc1cccc(CSCCNC(=O)c2c(Cl)cccc2Cl)c1 [Compound 48, 2,6-Dichloro-N-[2-(3-methyl-benzylsulfanyl)-ethyl]-benzamide] |  | 85.8 | good activity |  |  | 56 to 57 | no significant effect | 11.7 | 16.6 | 70.5 | 38 | 54 | 71% and 70.8% | 70.5 | 50 | 39.6 | 30
O=C(NCCSCc1cccc(Cl)c1)c1c([N+](=O)[O-])cccc1[N+](=O)[O-] [Compound 56, N-[2-(3-Chloro-benzylsulfanyl)-ethyl]-2,6-dinitro-benzamide] | 28.8 | 52.9 | not well tolerated | 0.1 | 17.8 | 139 to 140 |  |  |  |  |  |  |  |  |  |  | 
